These results are taken from US4394383A, “N-Alkoxysulfenylcarbamates useful as insecticides” (priority 1981, dated 1983).

Holding throughout (format): in vivo
In series [1] the test system is house flies, Musca domestica. The series can be described thus: Insecticidal activity against house flies, topical application on the notum, 24 h mortality. To be noted: for LD50: Musca domestica. The method, then:
Representative compounds of the N-alkoxysulfenylcarbamate esters of the invention were tested for insecticidal activity against house flies, Musca domestica. Stock 1% concentrated solutions of each of the test compounds were made in acetone, and such solutions diluted with acetone to a concentration of 0.001-0.1%. House flies were treated topically on the notum by 1 μl of each of the diluted acetone solutions and percent mortality was counted 24 hours after application. Insects were held at constant temperature of 60° F.
(§1) The term "LD50 " represents the dose needed to kill 50% of the test animals. In interpreting the values in the table above, the lower the value for LD50 for house flies, the greater the insecticidal potency or toxicity of that particular compound. On the other hand, the higher the value of LD50 for mice, the lower the mammalian toxicity or the greater is the mammalian safety of such compound.

Series [2] can be described thus: Mammalian toxicity, oral, Swiss white mice. Particulars: mouse, in vivo, po. As for the experimental part:
(§2) Mammalian toxicity was determined against Swiss white mice. The test compound was applied orally using corn oil as the carrier. Results are given as LD50 in mg of compound per kg body weight.
as §1

A further series concerns Swiss white mice. The series can be described thus: Mammalian toxicity, oral, Swiss white mice. To be noted: mice / mammals; comparison with parent carbamate or purified compound. As for the experimental part: as §2, §1
Setting [3] is: Table 1, oral in corn oil, samples contained polysulfide derivative in the amounts indicated, read-out: Mice LD50.
Where [4] appears, read: Table 2, polysulfide derivatives, oral in corn oil, read-out: Mice Toxicity LD50.

Where two headings read alike, the source gives them in different places.

In the case of `CCCCCCCCCCCCCCCCCCOSN(C)C(=O)Oc1cccc2c1OC(C)(C)C2` [Example 18, 2,3-Dihydro-2,2-dimethyl-7-benzofuranyl (methyl)(octadecyloxysulfenyl)carbamate], the LD50 in series [1] (read-out: House flies LD50) was 75 mg/kg; in series [2] (setting [3]), at least 1000 mg/kg.

Take `CNC(=O)Oc1cccc2c1OC(C)(C)C2` [Carbofuran, 2,3-dihydro-2,2-dimethyl-7-benzofuranyl methylcarbamate, reference compound]: the LD50 in series [1] (read-out: House flies LD50) is 11 mg/kg; in series [1] (read-out: LD50 value for house flies), around 11 mg/kg; in series [2] (setting [4]), 11 to 19 mg/kg; in series [2] (read-out: LD50 for mice), 11 mg/kg.

For `CCCCCCOSN(C)C(=O)Oc1cccc2c1OC(C)(C)C2` [CH2 (CH2)4 CH3, n = 1, 2,3-dihydro-2,2-dimethyl-7-benzofuranyl(hexyloxysulfenyl)(methyl)carbamate], the “House flies LD50” value in series [1] (Table 2, polysulfide derivatives) amounted to 9.3 µg/g. Further, the LD50 in series [2] (setting [4]) was determined as 37 mg/kg.

Take `CCCCOSN(C)C(=O)Oc1cccc(C(C)C)c1` [Example 10, 3-isopropylphenyl(butoxysulfenyl)(methyl)carbamate]: the LD50 in series [1] (read-out: House flies LD50) came out at 120 mg/kg; in series [2] (setting [3]), 130 mg/kg.

`CCC(CC)OSN(C)C(=O)Oc1cccc2c1OC(C)(C)C2` [Example 12, 2,3-Dihydro-2,2-dimethyl-7-benzofuranyl (1-ethylpropoxysulfeny)(methyl)carbamate]: the LD50 in series [1] (read-out: House flies LD50) is 21 mg/kg; in series [2] (setting [3]) it was 63 mg/kg.

Turning to `CCCCCCOSN(C)C(=O)Oc1cccc2c1OC(C)(C)C2` [Example 4, 2,3-dihydro-2,2-dimethyl-7-benzofuranyl(hexyloxysulfenyl)(methyl)carbamate], the LD50 came out at 9.3 mg/kg in series [1] (read-out: House flies LD50) and 88 mg/kg in series [2] (setting [3]).

As to `CN(SOCc1ccc(C(C)(C)C)cc1)C(=O)Oc1cccc2c1OC(C)(C)C2` [Example 17, 2,3-Dihydro-2,2-dimethyl-7-benzofuranyl (P--tert-butylbenzyloxysulfenyl)(methyl)carbamate], the LD50 in series [1] (read-out: House flies LD50) was 15.5 mg/kg; in series [2] (setting [3]), 98 mg/kg.

`CC(C)OSN(C)C(=O)Oc1cccc2c1OC(C)(C)C2` [Example 3, 2,3-dihydro-2,2-dimethyl-7-benzofuranyl(isopropoxysulfenyl)(methyl)carbamate]: the LD50 in series [1] (read-out: House flies LD50) was 31 mg/kg; in series [2] (setting [3]), 55 to 70 mg/kg.

As to `CCCCCCOSSN(C)C(=O)Oc1cccc2c1OC(C)(C)C2` [CH2 (CH2)4 CH3, n = 2, disulfide derivative of 2,3-dihydro-2,2-dimethyl-7-benzofuranyl(hexyloxysulfenyl)(methyl)carbamate], the LD50 in series [1] (read-out: House flies LD50) amounted to 13 mg/kg; in series [2] (setting [4]), 72 mg/kg.

Turning to `CCCCOSN(C)C(=O)Oc1ccccc1OC(C)C` [Example 8, 2-isopropoxyphenyl(butoxysulfenyl)(methyl)], the LD50 in series [1] (read-out: House flies LD50) was 46 mg/kg; in series [2] (setting [3]) it was above 1000 mg/kg.

In the case of `CNC(=O)Oc1ccccc1OC(C)C` [propoxur, 2-isopropoxyphenyl methylcarbamate, reference compound], in series [2] (read-out: LD50 for mice), the 50% lethal dose (LD50) was determined as 62 mg/kg.

With `CN(SOCc1ccccc1)C(=O)Oc1cccc2c1OC(C)(C)C2` [Example 6, 2,3-dihydro-2,2-dimethyl-7-benzofuranyl(benzyloxysulfenyl)(methyl)carbamate], the figures for the 50% lethal dose (LD50) in series [1] (read-out: House flies LD50) and in series [2] (setting [3]) were 7.5 mg/kg and 59 mg/kg, respectively.

`CN(SOC(C)(C)C)C(=O)Oc1cccc2c1OC(C)(C)C2` [Example 13, 2,3-Dihydro-2,2-dimethyl-7-benzofuranyl (tert-butoxysulfenyl)(methyl)carbamate]: the LD50 was 20 to 30 mg/kg in series [1] (read-out: House flies LD50) and 75 mg/kg in series [2] (setting [3]).

As to `COSN(C)C(=O)Oc1cccc2c1OC(C)(C)C2` [Example 1, 2,3-dihydro-2,2-dimethyl-7-benzofuranyl(methoxysulfenyl)(methyl)carbamate], the figures for the LD50 in series [1] (read-out: House flies LD50), in series [2] (setting [3]) and in series [2] (setting [4]) were 15.5 mg/kg, 43 mg/kg and 43 mg/kg, respectively.

For `CCCCCCCCCCOSN(C)C(=O)Oc1cccc2c1OC(C)(C)C2` [Example 15, 2,3-Dihydro-2,2-dimethyl-7-benzofuranyl (decyloxysulfenyl)(methyl)carbamate], the LD50 in series [1] (read-out: House flies LD50) was 7.3 mg/kg; in series [2] (setting [3]), 135 mg/kg.

For the compound `CCCCCCCCCCCCOSN(C)C(=O)Oc1cccc2c1OC(C)(C)C2` [Example 7, 2,3-dihydro-2,2-dimethyl-7-benzofuranyl(dodecyloxysulfenyl)(methyl)carbamate], the LD50 in series [1] (read-out: House flies LD50) worked out at 21 mg/kg; in series [2] (setting [3]), 340 mg/kg.

In the case of `CCOSN(C)C(=O)Oc1cccc2c1OC(C)(C)C2` [Example 2, 2,3-dihydro-2,2-dimethyl-7-benzofuranyl(ethoxysulfenyl)(methyl)carbamate], the values for the LD50 in series [1] (read-out: House flies LD50) and in series [2] (setting [3]) were 15.8 mg/kg and 46 mg/kg, respectively.

On to `CN(SOC1CCCCC1)C(=O)Oc1cccc2c1OC(C)(C)C2` [Example 5, 2,3-dihydro-2,2-dimethyl-7-benzofuranyl(cyclohexyloxysulfenyl)(methyl)carbamate], for which the LD50 in series [1] (read-out: House flies LD50) is 21.5 mg/kg; in series [2] (setting [3]), 69 mg/kg.

As to `COc1ccc(COSN(C)C(=O)Oc2cccc3c2OC(C)(C)C3)cc1` [Example 16, 2,3-Dihydro-2,2-dimethyl-7-benzofuranyl (P--methoxybenzyloxysulfenyl)(methyl)carbamate], the LD50 in series [1] (read-out: House flies LD50) stood at 13.8 mg/kg; in series [2] (setting [3]), 108 mg/kg.

For `CCCCCCCCOSN(C)C(=O)Oc1cccc2c1OC(C)(C)C2` [Example 14, 2,3-Dihydro-2,2-dimethyl-7-benzofuranyl (methyl)-(octyloxysulfenyl)carbamate], the values for the LD50 in series [1] (read-out: House flies LD50) and in series [2] (setting [3]) were 13 mg/kg and 100 mg/kg, respectively.

On to `COSSN(C)C(=O)Oc1cccc2c1OC(C)(C)C2` [CH3, n = 2, disulfide derivative of 2,3-dihydro-2,2-dimethyl-7-benzofuranyl(methoxysulfenyl)(methyl)carbamate], for which the LD50 in series [1] (read-out: House flies LD50) was 20.5 mg/kg; in series [2] (setting [4]), 48 mg/kg.

With `CC(C)c1cccc(OC(=O)N(C)SOCc2ccccc2)c1` [Example 11, 3-isopropylphenyl(benzyloxysulfenyl)(methyl)carbamate], the LD50 in series [1] (read-out: House flies LD50) was found to be 175 mg/kg; in series [2] (setting [3]), 210 mg/kg.

`CC(C)Oc1ccccc1OC(=O)N(C)SOCc1ccccc1` [Example 9, 2-isopropoxyphenyl(benzyloxysulfenyl)(methyl)carbamate]: the LD50 was 30 mg/kg in series [1] (read-out: House flies LD50), above 1000 mg/kg in series [2] (setting [3]) and above 1000 mg/kg in series [2] (read-out: LD50 for mice). Also, in the series with Swiss white mice, the “mammalian toxicity / safety (in words)” value is reported as “much safer to mammals”.
